Reference: the kinase profiling compilation of Christmann-Franck et al. (2016)

Tests used:
Assay in all cases: KINOMEscan competition binding
Settings in all cases: compound 10.0 µM
ACVR2B (human) = ACVR2B (human) (UniProt Q13705)
ADCK3 (human) = ADCK3 (human) (UniProt Q8NI60)
CAMK2G (human) = CAMK2G (human) (UniProt Q13555)
CDC2L2 (human) = CDC2L2 (human) (UniProt Q9UQ88)
CDK3 (human) = CDK3 (human) (UniProt Q00526)
CDK9 (human) = CDK9 (human) (UniProt P50750)
CHEK2 (human) = CHEK2 (human) (UniProt O96017)
CIT (human) = CIT (human) (UniProt O14578)
CSNK1G1 (human) = CSNK1G1 (human) (UniProt Q9HCP0)
CSNK1G3 (human) = CSNK1G3 (human) (UniProt Q9Y6M4)
DAPK1 (human) = DAPK1 (human) (UniProt P53355)
Chain of DAPK1 (human) (P53355 whole entry, looked up): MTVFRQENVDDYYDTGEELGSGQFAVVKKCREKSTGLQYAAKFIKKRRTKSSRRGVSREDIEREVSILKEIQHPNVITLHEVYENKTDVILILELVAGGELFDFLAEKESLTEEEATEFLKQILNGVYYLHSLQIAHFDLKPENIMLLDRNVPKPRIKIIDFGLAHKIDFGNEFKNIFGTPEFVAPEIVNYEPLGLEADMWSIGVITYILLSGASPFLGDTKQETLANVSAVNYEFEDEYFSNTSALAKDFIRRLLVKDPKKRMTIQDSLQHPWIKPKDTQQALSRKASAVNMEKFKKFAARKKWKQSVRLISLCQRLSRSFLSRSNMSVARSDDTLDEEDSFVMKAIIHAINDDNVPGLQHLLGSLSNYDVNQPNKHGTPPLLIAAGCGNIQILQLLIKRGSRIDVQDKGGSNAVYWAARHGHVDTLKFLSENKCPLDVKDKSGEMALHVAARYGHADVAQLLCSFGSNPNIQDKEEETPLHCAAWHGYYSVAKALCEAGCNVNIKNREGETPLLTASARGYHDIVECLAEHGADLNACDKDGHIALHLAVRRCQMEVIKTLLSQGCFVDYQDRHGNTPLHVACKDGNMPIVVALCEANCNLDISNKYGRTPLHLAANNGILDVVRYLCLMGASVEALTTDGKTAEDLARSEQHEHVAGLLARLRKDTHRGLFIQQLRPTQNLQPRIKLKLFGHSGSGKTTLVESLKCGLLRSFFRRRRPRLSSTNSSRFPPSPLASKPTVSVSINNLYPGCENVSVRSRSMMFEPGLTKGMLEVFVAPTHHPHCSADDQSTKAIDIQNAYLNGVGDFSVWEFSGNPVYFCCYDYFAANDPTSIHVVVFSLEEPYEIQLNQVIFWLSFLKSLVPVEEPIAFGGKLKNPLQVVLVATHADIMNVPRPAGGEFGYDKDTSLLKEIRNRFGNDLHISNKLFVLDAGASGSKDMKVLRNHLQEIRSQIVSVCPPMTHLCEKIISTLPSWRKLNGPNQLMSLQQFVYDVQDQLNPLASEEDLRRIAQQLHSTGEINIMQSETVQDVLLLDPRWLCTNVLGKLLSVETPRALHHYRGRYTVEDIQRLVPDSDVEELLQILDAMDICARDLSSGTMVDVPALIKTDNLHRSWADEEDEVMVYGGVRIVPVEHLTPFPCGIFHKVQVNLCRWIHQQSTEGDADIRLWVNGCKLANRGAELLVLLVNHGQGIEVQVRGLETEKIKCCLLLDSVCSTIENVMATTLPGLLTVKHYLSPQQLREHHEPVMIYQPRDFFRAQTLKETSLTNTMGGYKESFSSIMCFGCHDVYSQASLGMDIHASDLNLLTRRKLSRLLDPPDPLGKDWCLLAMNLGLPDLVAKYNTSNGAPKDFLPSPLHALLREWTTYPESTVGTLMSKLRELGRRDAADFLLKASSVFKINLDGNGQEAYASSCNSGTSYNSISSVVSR

DAPK2 (human) = DAPK2 (human) (UniProt Q9UIK4)
Chain of DAPK2 (human) (Q9UIK4 whole entry, looked up): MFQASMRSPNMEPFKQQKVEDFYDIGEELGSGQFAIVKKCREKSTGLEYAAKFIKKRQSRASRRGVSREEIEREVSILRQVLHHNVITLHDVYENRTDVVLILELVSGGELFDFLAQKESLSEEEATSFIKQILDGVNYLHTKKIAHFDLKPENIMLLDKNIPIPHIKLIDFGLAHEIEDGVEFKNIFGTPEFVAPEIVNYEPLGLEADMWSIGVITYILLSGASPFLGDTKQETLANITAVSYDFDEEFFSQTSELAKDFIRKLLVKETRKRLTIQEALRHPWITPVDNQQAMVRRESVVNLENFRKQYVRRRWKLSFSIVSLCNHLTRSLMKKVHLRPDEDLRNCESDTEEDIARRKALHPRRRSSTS

EPHA4 (human) = EPHA4 (human) (UniProt P54764)
EPHA5 (human) = EPHA5 (human) (UniProt P54756)
FRK (human) = FRK (human) (UniProt P42685)
[1] = target: JAK1 JH1 catalytic (human) (UniProt P23458)
LATS2 (human) = LATS2 (human) (UniProt Q9NRM7)
LTK (human) = LTK (human) (UniProt P29376)
MAP3K11 (human) = MAP3K11 (human) (UniProt Q16584)
MAP3K5 (human) = MAP3K5 (human) (UniProt Q99683)
MAP4K4 (human) = MAP4K4 (human) (UniProt O95819)
MAPK1 (human) = MAPK1 (human) (UniProt P28482)
MAPK4 (human) = MAPK4 (human) (UniProt P31152)
MAPK9 (human) = MAPK9 (human) (UniProt P45984)
MINK1 (human) = MINK1 (human) (UniProt Q8N4C8)
PAK1 (human) = PAK1 (human) (UniProt Q13153)
PAK6 (human) = PAK6 (human) (UniProt Q9NQU5)
PRKD1 (human) = PRKD1 (human) (UniProt Q15139)
Chain of PRKD1 (human) (Q15139 whole entry, looked up): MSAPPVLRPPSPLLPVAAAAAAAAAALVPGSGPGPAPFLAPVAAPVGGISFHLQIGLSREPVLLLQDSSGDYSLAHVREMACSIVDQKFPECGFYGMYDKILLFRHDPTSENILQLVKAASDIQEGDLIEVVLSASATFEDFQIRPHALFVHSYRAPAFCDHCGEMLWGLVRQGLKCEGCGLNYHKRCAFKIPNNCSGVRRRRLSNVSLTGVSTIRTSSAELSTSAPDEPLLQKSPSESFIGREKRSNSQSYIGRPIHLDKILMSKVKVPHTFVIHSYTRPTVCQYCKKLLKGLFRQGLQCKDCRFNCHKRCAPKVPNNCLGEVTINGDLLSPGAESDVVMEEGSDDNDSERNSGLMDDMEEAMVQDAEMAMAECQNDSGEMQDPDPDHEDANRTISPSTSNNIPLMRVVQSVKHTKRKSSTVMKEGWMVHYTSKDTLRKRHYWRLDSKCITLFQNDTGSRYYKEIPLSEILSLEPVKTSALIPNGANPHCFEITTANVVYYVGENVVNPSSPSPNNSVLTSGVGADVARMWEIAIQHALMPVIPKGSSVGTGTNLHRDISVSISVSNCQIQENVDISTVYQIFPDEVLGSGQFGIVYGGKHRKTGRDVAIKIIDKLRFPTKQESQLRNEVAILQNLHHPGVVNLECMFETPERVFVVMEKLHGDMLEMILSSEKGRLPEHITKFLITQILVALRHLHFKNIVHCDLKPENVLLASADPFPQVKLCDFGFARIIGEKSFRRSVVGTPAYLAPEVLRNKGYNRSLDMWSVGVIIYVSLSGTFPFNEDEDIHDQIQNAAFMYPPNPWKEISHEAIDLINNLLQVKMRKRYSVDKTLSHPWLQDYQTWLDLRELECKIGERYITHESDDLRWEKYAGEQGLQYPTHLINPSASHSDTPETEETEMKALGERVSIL

PTK2B (human) = PTK2B (human) (UniProt Q14289)
RIOK1 (human) = RIOK1 (human) (UniProt Q9BRS2)
Chain of RIOK1 (human) (Q9BRS2 whole entry, looked up): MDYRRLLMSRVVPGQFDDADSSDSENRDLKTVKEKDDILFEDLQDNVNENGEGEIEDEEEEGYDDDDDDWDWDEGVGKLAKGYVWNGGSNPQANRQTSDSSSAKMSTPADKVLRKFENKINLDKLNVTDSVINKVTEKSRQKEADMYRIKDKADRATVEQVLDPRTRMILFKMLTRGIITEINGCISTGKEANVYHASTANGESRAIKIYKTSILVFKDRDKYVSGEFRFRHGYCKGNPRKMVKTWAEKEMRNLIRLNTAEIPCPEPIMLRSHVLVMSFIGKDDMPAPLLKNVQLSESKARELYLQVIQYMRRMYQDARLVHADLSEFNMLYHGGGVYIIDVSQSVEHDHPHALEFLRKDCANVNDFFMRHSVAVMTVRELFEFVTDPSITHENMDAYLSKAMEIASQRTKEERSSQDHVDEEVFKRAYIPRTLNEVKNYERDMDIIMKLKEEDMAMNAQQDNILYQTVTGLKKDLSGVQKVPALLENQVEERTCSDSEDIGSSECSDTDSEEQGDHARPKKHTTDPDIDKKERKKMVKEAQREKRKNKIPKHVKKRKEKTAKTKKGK

RIOK3 (human) = RIOK3 (human) (UniProt O14730)
RIPK4 (human) = RIPK4 (human) (UniProt P57078)
RPS6KA3 KD1 (human) = RPS6KA3 KD1 (human) (UniProt P51812)
Chain of RPS6KA3 KD1 (human) (P51812 whole entry, looked up): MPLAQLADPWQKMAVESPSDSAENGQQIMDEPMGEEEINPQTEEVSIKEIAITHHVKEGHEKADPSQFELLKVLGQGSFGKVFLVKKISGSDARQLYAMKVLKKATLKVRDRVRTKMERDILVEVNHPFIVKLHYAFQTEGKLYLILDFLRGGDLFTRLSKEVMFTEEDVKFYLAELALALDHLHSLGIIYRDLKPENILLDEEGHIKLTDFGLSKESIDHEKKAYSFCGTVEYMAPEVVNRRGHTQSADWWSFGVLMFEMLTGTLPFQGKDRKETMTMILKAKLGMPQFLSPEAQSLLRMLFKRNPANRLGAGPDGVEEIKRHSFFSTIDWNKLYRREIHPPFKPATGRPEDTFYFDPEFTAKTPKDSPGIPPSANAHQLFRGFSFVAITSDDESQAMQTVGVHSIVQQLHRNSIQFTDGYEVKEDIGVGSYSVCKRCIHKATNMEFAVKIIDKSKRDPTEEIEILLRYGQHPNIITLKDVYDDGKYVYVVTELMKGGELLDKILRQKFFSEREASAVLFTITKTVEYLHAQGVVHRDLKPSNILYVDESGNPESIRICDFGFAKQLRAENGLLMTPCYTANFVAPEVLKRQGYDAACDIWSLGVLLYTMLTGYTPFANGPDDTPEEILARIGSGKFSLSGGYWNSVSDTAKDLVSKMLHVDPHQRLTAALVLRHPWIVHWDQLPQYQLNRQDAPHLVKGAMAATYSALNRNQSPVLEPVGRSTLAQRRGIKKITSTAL

RPS6KA6 KD2 (human) = RPS6KA6 KD2 (human) (UniProt Q9UK32)
Chain of RPS6KA6 KD2 (human) (Q9UK32 whole entry, looked up): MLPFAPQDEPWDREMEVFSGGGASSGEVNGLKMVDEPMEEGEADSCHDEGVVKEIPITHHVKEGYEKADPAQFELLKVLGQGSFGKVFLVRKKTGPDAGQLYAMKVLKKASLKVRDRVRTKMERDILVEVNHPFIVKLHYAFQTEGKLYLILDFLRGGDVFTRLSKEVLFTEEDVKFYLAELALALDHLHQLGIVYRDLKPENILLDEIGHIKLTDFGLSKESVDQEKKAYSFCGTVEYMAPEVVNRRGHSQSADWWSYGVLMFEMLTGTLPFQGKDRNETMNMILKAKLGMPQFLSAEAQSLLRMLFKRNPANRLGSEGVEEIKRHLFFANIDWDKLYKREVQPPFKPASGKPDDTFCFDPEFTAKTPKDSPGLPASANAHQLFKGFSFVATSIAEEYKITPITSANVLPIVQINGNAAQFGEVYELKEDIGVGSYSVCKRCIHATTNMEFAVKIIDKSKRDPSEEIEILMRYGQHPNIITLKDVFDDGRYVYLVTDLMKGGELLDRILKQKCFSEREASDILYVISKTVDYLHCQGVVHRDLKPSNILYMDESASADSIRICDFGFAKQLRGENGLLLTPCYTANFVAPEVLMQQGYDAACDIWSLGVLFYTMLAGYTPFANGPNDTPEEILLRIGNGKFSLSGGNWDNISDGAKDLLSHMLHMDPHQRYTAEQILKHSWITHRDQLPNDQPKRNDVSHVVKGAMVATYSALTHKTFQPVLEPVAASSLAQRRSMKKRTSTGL

STK10 (human) = STK10 (human) (UniProt O94804)
STK25 (human) = STK25 (human) (UniProt O00506)
STK32B (human) = STK32B (human) (UniProt Q9NY57)
TGFBR2 (human) = TGFBR2 (human) (UniProt P37173)
TNK1 (human) = TNK1 (human) (UniProt Q13470)
TXK (human) = TXK (human) (UniProt P42681)

Chain of CDK3 (human) (Q00526 whole entry, looked up): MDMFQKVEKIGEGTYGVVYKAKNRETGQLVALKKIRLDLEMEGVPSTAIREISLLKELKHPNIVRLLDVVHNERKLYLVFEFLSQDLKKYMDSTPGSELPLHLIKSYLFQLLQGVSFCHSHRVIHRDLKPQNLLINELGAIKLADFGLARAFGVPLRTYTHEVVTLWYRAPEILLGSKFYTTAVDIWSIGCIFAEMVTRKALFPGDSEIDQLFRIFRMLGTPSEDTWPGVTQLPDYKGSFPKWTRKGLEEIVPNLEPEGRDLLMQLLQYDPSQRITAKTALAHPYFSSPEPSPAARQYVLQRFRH

Row | Compound | kinase still bound, per cent of control (ACVR2B (human)) | kinase still bound, per cent of control (ADCK3 (human)) | kinase still bound, per cent of control (CAMK2G (human)) | kinase still bound, per cent of control (CDC2L2 (human)) | kinase still bound, per cent of control (CDK3 (human)) | kinase still bound, per cent of control (CDK9 (human)) | kinase still bound, per cent of control (CHEK2 (human)) | kinase still bound, per cent of control (CIT (human)) | kinase still bound, per cent of control (CSNK1G1 (human)) | kinase still bound, per cent of control (CSNK1G3 (human)) | kinase still bound, per cent of control (DAPK1 (human)) | kinase still bound, per cent of control (DAPK2 (human)) | kinase still bound, per cent of control (EPHA4 (human)) | kinase still bound, per cent of control (EPHA5 (human)) | kinase still bound, per cent of control (FRK (human)) | kinase still bound, per cent of control [1] | kinase still bound, per cent of control (LATS2 (human)) | kinase still bound, per cent of control (LTK (human)) | kinase still bound, per cent of control (MAP3K11 (human)) | kinase still bound, per cent of control (MAP3K5 (human)) | also measured
1 | CN(C)C/C=C/C(=O)Nc1cccc(Nc2ncc3c(n2)N(C)c2ccccc2C(=O)N3C)c1 | 9.4% | 74% | 46% | 100% | 100% | 100% | 94% | 86% | 47% | 39% | 52% | 69% | 79% | 99% | 18% | 2.8% | 97% | 100% | 100% | 100% | kinase still bound, per cent of control (MAP4K4 (human)): 50%; kinase still bound, per cent of control (MAPK1 (human)): 100%; kinase still bound, per cent of control (MAPK4 (human)): 100%; kinase still bound, per cent of control (MAPK9 (human)): 100%; kinase still bound, per cent of control (MINK1 (human)): 29%; kinase still bound, per cent of control (PAK1 (human)): 91%; kinase still bound, per cent of control (PAK6 (human)): 66%; kinase still bound, per cent of control (PRKD1 (human)): 15%; kinase still bound, per cent of control (PTK2B (human)): 74%; kinase still bound, per cent of control (RIOK1 (human)): 18%; kinase still bound, per cent of control (RIOK3 (human)): 16%; kinase still bound, per cent of control (RIPK4 (human)): 1%; kinase still bound, per cent of control (RPS6KA3 KD1 (human)): 29%; kinase still bound, per cent of control (RPS6KA6 KD2 (human)): 0.6%; kinase still bound, per cent of control (STK10 (human)): 30%; kinase still bound, per cent of control (STK25 (human)): 66%; kinase still bound, per cent of control (STK32B (human)): 100%; kinase still bound, per cent of control (TGFBR2 (human)): 55%; kinase still bound, per cent of control (TNK1 (human)): 0.4%; kinase still bound, per cent of control (TXK (human)): 11%
2 | COc1cc(C(=O)NC2CCN(C)CC2)ccc1Nc1ncc2c(n1)N(C1CCCC1)C(C)CC(=O)N2C (stereo not given) | 100% | 100% | 34% | 100% | 100% | 100% | 100% | 100% | 100% | 100% | 26% | 100% | 100% | 100% | 100% | 100% | 100% | 100% | 100% | 100% | kinase still bound, per cent of control (MAP4K4 (human)): 100%; kinase still bound, per cent of control (MAPK1 (human)): 100%; kinase still bound, per cent of control (MAPK4 (human)): 100%; kinase still bound, per cent of control (MAPK9 (human)): 100%; kinase still bound, per cent of control (MINK1 (human)): 100%; kinase still bound, per cent of control (PAK1 (human)): 100%; kinase still bound, per cent of control (PAK6 (human)): 100%; kinase still bound, per cent of control (PRKD1 (human)): 100%; kinase still bound, per cent of control (PTK2B (human)): 13%; kinase still bound, per cent of control (RIOK1 (human)): 100%; kinase still bound, per cent of control (RIOK3 (human)): 100%; kinase still bound, per cent of control (RIPK4 (human)): 100%; kinase still bound, per cent of control (RPS6KA3 KD1 (human)): 100%; kinase still bound, per cent of control (RPS6KA6 KD2 (human)): 12%; kinase still bound, per cent of control (STK10 (human)): 29%; kinase still bound, per cent of control (STK25 (human)): 100%; kinase still bound, per cent of control (STK32B (human)): 100%; kinase still bound, per cent of control (TGFBR2 (human)): 100%; kinase still bound, per cent of control (TNK1 (human)): 100%; kinase still bound, per cent of control (TXK (human)): 100%
